Calls of active or inactive are those of the source.
Columns and labels:
[1] = HeLa cell cytotoxicity, dose response, cytotoxicity control, CellTiter-Glo luminescence, dry powder, set 2 (AID 720593); type: functional, cell-based
[2] = Late stage assay provider results from the probe development effort to identify inhibitors of the Plasmodium falciparum M17 Leucine Aminopeptidase (M17LAP): radiolabel-based cell-based dose response assay to identify compounds that inhibit P. falciparum growth in RBCs Set 2.; type: functional
[3] = HepG2 cell cytotoxicity, dose response, cytotoxicity control, ATP luminescence, cherry-pick, set 6 (AID 1053125); type: functional, cell-based
cells [4] = conditions: A549
cells [5] = conditions: HEK293
[6] = target: NAD-dependent protein deacylase sirtuin-5, mitochondrial (Homo sapiens, UniProt Q9NXA8); test: SIRT5 desuccinylase inhibitors, dose response, biochemical, fluorescence imaging, cherry-pick, set 5 (AID 720591);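 note: desuccinylation of succinyl peptide AMC substrate read as fluorescence after trypsin release; potency of inhibitors that lower fluorescence and may act on trypsin instead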
HEK293 = test: inhibitors of LMP1-driven NF-kB reporter, dose response, cell-based, HEK293, luciferase, cherry-pick (AID 588343); type: functional; conditions: Homo sapiens
cells [7] = type: functional, cell-based
[8] = target: T1, Nuclear receptor subfamily 0 group B member 1 (Homo sapiens, UniProt P51843); type: functional, cell-based;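 note: HEK293T cells transfected with SF-1 and DAX-1 plus StAR promoter luciferase reporter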
T1 sequence (P51843 whole entry): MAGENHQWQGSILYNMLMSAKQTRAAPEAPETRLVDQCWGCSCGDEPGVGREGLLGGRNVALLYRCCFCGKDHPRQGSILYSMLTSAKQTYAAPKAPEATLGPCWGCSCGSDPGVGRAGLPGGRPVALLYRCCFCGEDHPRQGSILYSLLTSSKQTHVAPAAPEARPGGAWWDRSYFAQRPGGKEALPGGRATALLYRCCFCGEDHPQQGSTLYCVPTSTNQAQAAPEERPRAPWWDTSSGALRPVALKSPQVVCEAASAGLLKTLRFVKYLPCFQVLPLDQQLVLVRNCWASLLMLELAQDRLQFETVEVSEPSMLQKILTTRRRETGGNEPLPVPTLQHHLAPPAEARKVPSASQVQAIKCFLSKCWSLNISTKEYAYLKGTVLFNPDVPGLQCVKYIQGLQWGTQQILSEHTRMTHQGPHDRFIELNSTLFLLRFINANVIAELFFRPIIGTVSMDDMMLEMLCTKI

HeLa = test: HeLa cell cytotoxicity, dose response, cytotoxicity control, ATP luminescence, cherry-pick samples (AID 687004); type: functional, cell-based; conditions: Homo sapiens
[9] = A375 melanoma cell cytotoxicity, dose response, counter-screen for MITF inhibitor project, CellTiter-Glo luminescence, dry powder, set 7 (AID 624490); type: functional, cell-based; conditions: A-375
[10] = SK-MEL-5 parental line viability, dose response, MITF inhibitor project, cell-based, CellTiter-Glo, dry powder, set 6 (AID 624429); type: functional
[11] = MITF Orthogonal Assay: SK-MEL-5 CTG Assay Measured in Cell-Based System Using Plate Reader - 2084-02_Inhibitor_Dose_DryPowder_Activity_Set5.; type: functional
[12] = MITF Measured in Cell-Based System Using Plate Reader - 2084-01_Inhibitor_Dose_DryPowder_Activity_Set6.; type: functional
[13] = MITF Measured in Cell-Based System Using Plate Reader - 2084-01_Inhibitor_Dose_DryPowder_Activity_Set7.; type: functional
[14] = cytotoxicity in HeLa cells, dose response, cytotoxicity control, cell-based, plate reader, dry powder (AID 651946); type: functional
[15] = endogenous miR-122 level reduction, dose response, orthogonal assay for miR-122 inhibitor project, cell-based, Huh7, RT-qPCR, dry powder (AID 687041); type: functional
[16] = target: Metabotropic glutamate receptor 5 (Rattus norvegicus, UniProt P31424); test: Identification of a glycine sulfonamide based non-MPEP site positive allosteric potentiator (PAM) of mGlu5 (calcium_assay).; type: functional
[17] = target: T2, Methionyl-tRNA synthetase, putative (Trypanosoma brucei brucei, UniProt Q38C91); type: functional, Trypanosoma brucei brucei strain 927/4 GUTat10.1
T2 sequence (Q38C91 whole entry): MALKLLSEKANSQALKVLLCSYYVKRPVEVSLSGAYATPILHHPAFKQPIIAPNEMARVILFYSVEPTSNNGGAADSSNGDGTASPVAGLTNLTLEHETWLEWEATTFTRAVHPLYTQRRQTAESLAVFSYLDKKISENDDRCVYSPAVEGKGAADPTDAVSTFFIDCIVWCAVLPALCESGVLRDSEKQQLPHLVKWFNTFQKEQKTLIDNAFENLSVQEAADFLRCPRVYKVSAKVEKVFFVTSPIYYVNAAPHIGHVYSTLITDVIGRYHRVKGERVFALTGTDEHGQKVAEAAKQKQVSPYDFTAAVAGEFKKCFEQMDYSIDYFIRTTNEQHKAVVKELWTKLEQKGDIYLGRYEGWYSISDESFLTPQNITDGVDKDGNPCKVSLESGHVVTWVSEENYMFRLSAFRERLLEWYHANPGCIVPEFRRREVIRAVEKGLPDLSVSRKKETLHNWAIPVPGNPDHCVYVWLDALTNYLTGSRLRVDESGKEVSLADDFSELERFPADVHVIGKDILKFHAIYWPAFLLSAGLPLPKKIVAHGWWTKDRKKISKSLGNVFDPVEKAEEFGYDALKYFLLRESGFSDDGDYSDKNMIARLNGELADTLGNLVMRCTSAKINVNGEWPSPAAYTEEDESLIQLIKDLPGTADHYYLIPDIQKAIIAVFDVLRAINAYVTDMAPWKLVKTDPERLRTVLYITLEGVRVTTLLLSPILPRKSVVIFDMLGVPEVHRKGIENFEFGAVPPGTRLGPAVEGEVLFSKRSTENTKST

[18] = Counterscreen for inhibitors of Trypanosoma brucei methionyl tRNA synthetase (MetRS): Luminescence-based cell-based high throughput dose response assay to identify compounds that are cytotoxic to Jurkat human T lymphocyte cells.; type: functional
[19] = target: T2, Methionyl-tRNA synthetase, putative; type: functional, Trypanosoma brucei brucei strain 927/4 GUTat10.1; remark: listed apart in the source
[20] = THP-1 cell cytotoxicity, dose response, cytotoxicity control for Vif-APOBEC3G degradation inhibitor project, THP-1 cells (AID 1117359); type: functional; conditions: Human immunodeficiency virus 1, THP-1
[21] = target: Glutathione-S-transferase (Schistosoma japonicum, UniProt Q26513); test: biotin-GST/anti-GST TR-FRET signal inhibitors, dose response, artefact control for Vif-APOBEC3G degradation inhibitor project, biochemical (AID 1117362); type: functional
[22] = A Cell-Based Confirmatory Screen for Compounds that Inhibit VEEV, TC-83 (8).; type: functional
[23] = A Cell-Based Confirmatory Screen for Compounds that Inhibit VEEV, TC-83 (7).; type: functional
[24] = inhibitors of firefly luciferase expression or activity, dose response, H4 neuroglioma cells, luminescence (AID 1990); type: functional, cell-based
[25] = Luminescence Cell-Based Dose Response HTS to Identify Inhibitors of 5'UTR Stem-Loop Driven Prion Protein mRNA Translation in H4 Neuroglioblastoma Cells. [Related pubchem assays: 1827 (Project Summary), 1813 (Primary HTS)]; type: functional
[26] = inhibitors of SNCA 5'UTR-driven reporter translation, confirmation, H4 neuroglioma cells, luminescence (AID 1988); type: functional, cell-based
[27] = target: T3, Mannose-6-phosphate isomerase (Homo sapiens, UniProt P34949); test: inhibitors of human PMI, primary screen, biochemical, fluorescence intensity, coupled assay (AID 1209)
T3 sequence (P34949 whole entry): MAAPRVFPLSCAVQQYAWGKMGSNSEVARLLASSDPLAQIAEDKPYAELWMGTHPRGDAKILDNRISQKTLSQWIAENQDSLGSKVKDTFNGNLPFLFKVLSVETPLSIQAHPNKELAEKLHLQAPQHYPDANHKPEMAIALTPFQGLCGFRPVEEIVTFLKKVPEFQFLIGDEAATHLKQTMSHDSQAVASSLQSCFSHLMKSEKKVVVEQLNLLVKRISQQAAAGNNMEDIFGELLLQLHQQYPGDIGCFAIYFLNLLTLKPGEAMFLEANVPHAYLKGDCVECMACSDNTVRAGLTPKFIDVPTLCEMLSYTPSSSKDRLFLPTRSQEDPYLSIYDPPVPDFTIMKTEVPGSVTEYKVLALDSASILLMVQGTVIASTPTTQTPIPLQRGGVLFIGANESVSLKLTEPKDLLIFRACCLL

Genome polyprotein = Genome polyprotein (dengue virus type 2, UniProt P29990); test: Dengue-2 NS5 methyltransferase inhibitors, primary screen, biochemical, confirmation dose response (AID 588689); type: functional
[28] = HepG2 cell cytotoxicity, dose response, cytotoxicity control, dry powder samples (AID 720568); type: functional, cell-based
[29] = target: Endoplasmic reticulum aminopeptidase 1 (Homo sapiens, UniProt Q9NZ08); test: ERAP1 aminopeptidase inhibitors, dose response, biochemical, cherry-pick, set 2, plate reader (AID 743314)
[30] = target: T4, Heat shock factor protein 1 (Mus musculus, UniProt P38532); test: HSF1 potentiators in luciferase reporter cells, confirmation, cell-based, NIH3T3, luminescence, dose retest (AID 435004); type: functional;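 note: stress induced by proteasome inhibitor MG132 added 30 min after compound; luciferase reporter driven by HSF1 response element in NIH3T3 cells; actives raise luminescence as potentiators of the MG132 stress response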
T4 sequence (P38532 whole entry): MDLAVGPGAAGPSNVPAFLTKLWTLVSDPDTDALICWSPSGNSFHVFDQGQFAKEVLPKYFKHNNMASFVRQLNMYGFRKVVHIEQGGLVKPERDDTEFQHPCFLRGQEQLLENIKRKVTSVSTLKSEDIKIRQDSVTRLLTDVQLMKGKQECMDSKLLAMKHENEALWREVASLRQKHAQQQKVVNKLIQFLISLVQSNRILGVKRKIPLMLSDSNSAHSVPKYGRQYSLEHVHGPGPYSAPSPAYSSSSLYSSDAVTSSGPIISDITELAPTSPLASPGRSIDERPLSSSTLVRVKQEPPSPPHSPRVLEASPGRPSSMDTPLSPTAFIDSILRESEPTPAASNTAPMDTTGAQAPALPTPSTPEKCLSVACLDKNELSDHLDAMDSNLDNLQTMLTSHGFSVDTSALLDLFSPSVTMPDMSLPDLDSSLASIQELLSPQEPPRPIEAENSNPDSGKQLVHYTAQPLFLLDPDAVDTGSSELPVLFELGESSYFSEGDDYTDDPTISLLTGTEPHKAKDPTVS

cells [31] = test: cells
[32] = T. cruzi growth inhibition in host cells, dose response, cell-based, plate reader, dry powder, set 2 (AID 652275); type: functional

Chain of Genome polyprotein (P29990 2492-3391 limits assumed): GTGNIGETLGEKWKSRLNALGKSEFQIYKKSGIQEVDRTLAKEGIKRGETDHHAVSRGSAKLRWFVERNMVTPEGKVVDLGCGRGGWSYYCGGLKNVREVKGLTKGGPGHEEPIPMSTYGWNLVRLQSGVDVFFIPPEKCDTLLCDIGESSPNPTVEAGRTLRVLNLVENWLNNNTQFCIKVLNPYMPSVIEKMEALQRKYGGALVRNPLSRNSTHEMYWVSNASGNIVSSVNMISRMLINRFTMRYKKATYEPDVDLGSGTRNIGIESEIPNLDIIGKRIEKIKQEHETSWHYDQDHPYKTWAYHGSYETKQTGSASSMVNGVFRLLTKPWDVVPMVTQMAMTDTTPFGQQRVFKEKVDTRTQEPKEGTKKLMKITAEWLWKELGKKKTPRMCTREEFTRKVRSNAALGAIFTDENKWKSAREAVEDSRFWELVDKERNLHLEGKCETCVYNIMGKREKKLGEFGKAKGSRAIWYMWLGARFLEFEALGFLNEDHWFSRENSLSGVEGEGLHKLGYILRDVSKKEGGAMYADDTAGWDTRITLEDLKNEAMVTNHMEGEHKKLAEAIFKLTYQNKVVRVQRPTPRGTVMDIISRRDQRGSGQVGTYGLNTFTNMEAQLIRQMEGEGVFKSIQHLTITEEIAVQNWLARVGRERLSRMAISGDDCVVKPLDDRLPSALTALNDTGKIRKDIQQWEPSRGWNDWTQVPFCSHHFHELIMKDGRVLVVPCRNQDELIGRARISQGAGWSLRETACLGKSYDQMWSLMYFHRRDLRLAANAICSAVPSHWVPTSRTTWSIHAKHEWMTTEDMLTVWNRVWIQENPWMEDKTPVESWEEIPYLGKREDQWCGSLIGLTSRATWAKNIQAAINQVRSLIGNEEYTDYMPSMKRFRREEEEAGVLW
Chain of Endoplasmic reticulum aminopeptidase 1 (Q9NZ08 whole entry): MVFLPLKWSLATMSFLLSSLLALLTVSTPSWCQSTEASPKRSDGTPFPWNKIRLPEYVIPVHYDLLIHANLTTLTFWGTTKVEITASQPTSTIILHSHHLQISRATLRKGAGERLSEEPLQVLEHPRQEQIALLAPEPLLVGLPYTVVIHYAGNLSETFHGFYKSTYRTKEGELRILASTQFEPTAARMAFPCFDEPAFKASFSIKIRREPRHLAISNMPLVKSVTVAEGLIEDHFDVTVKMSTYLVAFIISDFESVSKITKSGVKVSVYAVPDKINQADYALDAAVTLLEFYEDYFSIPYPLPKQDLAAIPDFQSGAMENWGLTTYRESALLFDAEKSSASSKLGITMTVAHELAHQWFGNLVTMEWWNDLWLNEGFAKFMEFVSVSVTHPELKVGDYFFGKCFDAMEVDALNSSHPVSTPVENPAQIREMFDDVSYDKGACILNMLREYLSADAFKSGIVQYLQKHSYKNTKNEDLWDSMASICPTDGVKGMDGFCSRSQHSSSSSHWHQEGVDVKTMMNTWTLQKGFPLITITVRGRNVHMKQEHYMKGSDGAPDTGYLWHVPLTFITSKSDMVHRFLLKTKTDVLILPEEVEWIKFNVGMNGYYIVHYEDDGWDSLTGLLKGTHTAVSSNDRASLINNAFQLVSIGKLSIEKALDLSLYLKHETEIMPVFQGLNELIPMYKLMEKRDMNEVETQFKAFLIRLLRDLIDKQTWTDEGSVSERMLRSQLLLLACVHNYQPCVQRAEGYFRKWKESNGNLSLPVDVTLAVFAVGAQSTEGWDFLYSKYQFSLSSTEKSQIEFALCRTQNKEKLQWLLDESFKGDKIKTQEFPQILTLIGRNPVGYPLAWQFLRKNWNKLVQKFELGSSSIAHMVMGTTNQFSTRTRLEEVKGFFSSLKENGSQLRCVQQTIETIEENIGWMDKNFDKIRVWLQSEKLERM
Chain of NAD-dependent protein deacylase sirtuin-5, mitochondrial (Q9NXA8 whole entry): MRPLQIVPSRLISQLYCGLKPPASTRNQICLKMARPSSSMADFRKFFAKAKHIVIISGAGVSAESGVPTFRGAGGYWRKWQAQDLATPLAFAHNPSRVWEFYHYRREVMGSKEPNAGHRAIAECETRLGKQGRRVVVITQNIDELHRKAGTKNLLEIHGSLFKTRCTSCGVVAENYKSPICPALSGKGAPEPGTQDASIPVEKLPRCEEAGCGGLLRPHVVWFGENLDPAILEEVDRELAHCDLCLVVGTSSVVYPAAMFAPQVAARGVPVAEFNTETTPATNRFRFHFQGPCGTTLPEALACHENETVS
Chain of Glutathione-S-transferase (Q26513 whole entry): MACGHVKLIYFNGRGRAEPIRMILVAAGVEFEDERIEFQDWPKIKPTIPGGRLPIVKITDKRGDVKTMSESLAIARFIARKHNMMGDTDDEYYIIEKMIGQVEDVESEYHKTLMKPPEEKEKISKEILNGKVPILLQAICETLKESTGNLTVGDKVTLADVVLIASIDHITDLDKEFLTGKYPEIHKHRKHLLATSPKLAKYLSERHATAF
Chain of Metabotropic glutamate receptor 5 (P31424 whole entry): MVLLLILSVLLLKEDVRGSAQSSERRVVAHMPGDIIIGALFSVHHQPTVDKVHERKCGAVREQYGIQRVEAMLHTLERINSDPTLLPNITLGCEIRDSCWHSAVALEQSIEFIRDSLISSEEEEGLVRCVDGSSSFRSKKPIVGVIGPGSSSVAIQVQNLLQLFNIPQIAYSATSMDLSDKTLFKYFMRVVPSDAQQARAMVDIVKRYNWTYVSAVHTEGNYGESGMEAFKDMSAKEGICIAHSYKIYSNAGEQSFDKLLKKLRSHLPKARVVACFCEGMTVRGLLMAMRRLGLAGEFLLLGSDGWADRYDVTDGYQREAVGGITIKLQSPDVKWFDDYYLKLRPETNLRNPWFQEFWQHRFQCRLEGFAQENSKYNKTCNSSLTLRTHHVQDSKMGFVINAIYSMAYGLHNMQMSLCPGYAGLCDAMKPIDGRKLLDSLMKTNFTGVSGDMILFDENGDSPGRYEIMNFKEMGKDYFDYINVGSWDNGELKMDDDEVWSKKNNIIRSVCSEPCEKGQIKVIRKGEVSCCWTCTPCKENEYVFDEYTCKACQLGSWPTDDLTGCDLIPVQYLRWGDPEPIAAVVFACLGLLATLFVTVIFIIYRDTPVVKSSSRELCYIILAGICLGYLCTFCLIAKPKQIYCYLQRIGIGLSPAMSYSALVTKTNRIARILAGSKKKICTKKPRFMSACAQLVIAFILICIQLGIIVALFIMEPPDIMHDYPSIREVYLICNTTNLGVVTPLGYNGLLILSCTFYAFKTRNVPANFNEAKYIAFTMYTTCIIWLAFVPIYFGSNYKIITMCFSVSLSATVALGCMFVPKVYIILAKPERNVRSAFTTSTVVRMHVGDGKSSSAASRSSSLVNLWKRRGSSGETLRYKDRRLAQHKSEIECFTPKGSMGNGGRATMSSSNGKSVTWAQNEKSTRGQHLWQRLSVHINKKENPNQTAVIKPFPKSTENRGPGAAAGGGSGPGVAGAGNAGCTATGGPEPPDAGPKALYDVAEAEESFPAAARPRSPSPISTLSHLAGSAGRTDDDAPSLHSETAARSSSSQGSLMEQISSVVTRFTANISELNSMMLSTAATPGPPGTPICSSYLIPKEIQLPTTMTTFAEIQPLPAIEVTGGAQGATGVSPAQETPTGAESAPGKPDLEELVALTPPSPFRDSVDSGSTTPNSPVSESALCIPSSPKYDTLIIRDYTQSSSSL

O=C(Nc1nc(-c2ccccn2)cs1)c1ccc(S(=O)(=O)N2CCOCC2)cc1
AC50 [1]: 41.1 µM (active)

CCCCOc1ccc(CC(=O)N(C)O)cc1
IC50 [2]: 15 µM (inactive)

N#CC1=C(N)Oc2cc(N)ccc2C1c1ccc(F)cc1F (configuration not stated)
AC50 [3]: 45.3 µM (active) | AC50 (cells [4]): 31.8 µM (active) | AC50 (cells [5]): > 52 µM (inactive)

CCC(C)(C)NC(=O)C(c1ccc(F)cc1)N(Cc1ccco1)C(=O)CCC(=O)Nc1ccccn1 (configuration not stated)
AC50 [6]: > 30 µM (inactive)

C(=Cc1nc2ccccc2o1)c1ccc2c(c1)OCO2
AC50 (HEK293): 2.91 µM (active) | IC50 (cells [7]): > 67.6 µM (inactive) | IC50 [8]: > 0.0927 µM (active)

C(=Nn1cnnc1)c1ccc2c(c1)CCC2
AC50 (HeLa): 28.2 µM (active)

CNC1=CC(=O)c2ccccc2C1=O
AC50 [9]: > 70 µM (inactive) | AC50 [10]: 62.6 µM (active) | AC50 [11]: 52.9 µM (active) | AC50 [12]: 11.3 µM (active) | AC50 [13]: 17.2 µM (active)

COCCOCCSc1nnc(-c2ccccc2)o1
AC50 [14]: > 52 µM (inactive)

Cc1ccc(S(=O)(=O)Nc2ccc3c4c(cccc24)CC3)c(C)c1
AC50 [15]: 0.567 µM (active)

CS(=O)(=O)N(CC(=O)N1CCc2ccccc21)c1cc(C(F)(F)F)ccc1Cl
EC50 [16]: 10 µM (inconclusive)

COC(=O)c1sc(-c2ccc(Cl)cc2)cc1NC(=O)COCC(=O)O
IC50 [17]: 18.7 µM (inactive) | IC50 [18]: 83.2 µM (inactive) | IC50 [19]: 13.8 µM (inactive)

COc1ccc2c(c1)O[C@@H](c1ccc3c(c1)OCO3)[C@H](OC(=O)Nc1cc(OC)c(OC)c(OC)c1)C2=O
CC50 [20]: 6.65 µM (active) | IC50 [21]: > 100 µM (active)

COc1ccc(NC(=O)c2cc([N+](=O)[O-])ccc2/N=C2\CN(C)CCN2C)cc1
IC50 [22]: 0.037 µM (active) | IC50 [23]: 0.04 µM (active)

O=C1CCNc2cc3ccccc3cc21
EC50 [24]: > 60 µM (not active) | EC50 [25]: > 120 µM (not active) | EC50 [26]: 5.91 µM (active) | IC50 [27]: 23.2 µM (active) | IC50 (Genome polyprotein): > 100 µM (active) | AC50 [28]: 5.57 µM (active)

CCCN1[C@@H]2Cn3c(ccc(/C=C/c4ccccc4)c3=O)[C@H]1[C@@H](C(=O)NCc1ccccn1)[C@@H]2CO
AC50 [29]: 8.95 µM (active)

COc1ccc(C2C3=C(CCCC3=O)N(CC(=O)O)C3=C2C(=O)CCC3)cc1Cl
EC50 [30]: > 260 µM (inactive) | AC50 [3]: > 52 µM (inactive) | AC50 (cells [4]): > 52 µM (inactive) | AC50 (cells [31]): 2.66 µM (active)

COc1ccc(C#Cc2cccc(-c3nc(C(=O)NCc4ccc5c(c4)OCO5)cc4c3[C@H](CCO)N([S+]([O-])C(C)(C)C)C4)c2)cc1OC (some centres not stated)
AC50 [32]: 0.844 µM (active)

Source: ChEMBL document CHEMBL1201862, “PubChem BioAssay data set” (2004)
